Assay results as given in patent US10086039B2, “Lamin A, an activator of longevity/anti-aging SIRT1 protein” (THE UNIVERSITY OF HONG KONG, priority 2012, dated 2018).

What was measured:
H3K9ac = H3K9ac level in wild-type, SIRT1 null and Lmna null cells (immunoblot, immunofluorescence); type: cell-based
Procedure: (§1) Western blotting was performed as described previously (Liu et al., 2005). Relative band intensity was measured by IMAGE J® and normalized to corresponding wild-type or untreated controls as indicated.
In addition to acetyl p53, H3K9ac is another substrate of SIRT1 deacetylase (Wang et al., 2008). This Example further investigates the effects of resveratrol on H3K9ac in the wild-type, SIRT1^−/− or Lmna null cells. […] Anti-H3K9ac immunofluorescence staining further confirmed the lamin A-dependent activation of SIRT1 by resveratrol (FIG. 3G).

p16ink4a = p16ink4a level in MEFs by Western blotting; type: cell-based, mouse; details: Zmpste24−/− MEFs
Procedure: as §1
As resveratrol enhances SIRT1 deacetylase activity by increasing its binding to lamin A, this Example examines the effects of resveratrol treatment on the early senescence in Zmpste24^−/− MEFs. […] As SIRT1 is more highly expressed in stem cells than in somatic differentiated cells and it is critical for maintaining stem cell self-renewal and function (Han et al., 2008; Lee et al., 2011; Saunders et al., 2010), we then tested effects of resveratrol on BMSCs.

Gadd45α and catalase = Gadd45α and catalase expression in Zmpste24−/− BMSCs (Western blotting); type: cell-based, mouse
Procedure: (FIG. 4A) Resveratrol (10 μM) increased colony-forming capacity of Zmpste24^−/− BMSCs. Colony-forming assay was performed on freshly isolated bone marrow cells in 10 cm dishes in the presence and absence of resveratrol. (FIG. 4B) Colony number counting. […] Data represent mean±SEM, n=4. *P<0.05, RSV Vs Vehicle. (FIG. 4C) Left, level of prelamin A pull down by anti SIRT1 immunoprecipitates in BMSCs treated or untreated with resveratrol (2 μM) was determined by Immunoblotting; right, level of acetylated Foxo3a in resveratrol was assessed by Immunoblotting. (FIG. 4D) Levels of catalase and Gadd45α in SIRT1 or scramble siRNA treated Zmpste24^−/− BMSCs in the presence or absence of resveratrol (10 μM) determined by Western blotting. […] (FIG. 4F) Quantification of (FIG. 4E). […] (FIG. 4gG Levels of H3K9ac and IR-induced-H2AX with or without ectopic SIRT1 in wild-type and Zmpste24 null BMSCs were assessed by Western blotting. (FIG. 4H) Ectopic SIRT1 increased the colony-forming capacity of Zmpste24^−/− and wild-type BMSCs. Colony-forming assay was performed on freshly isolated cells in 6 cm dishes. (FIG. 4I) Quantification of (FIG. 4H). Data represent mean±SEM, n=5. *P<0.05, SIRT1 Vs Mock.
as §1

Zmpste24−/− mice [1] = assay: Catalase, acetyl p53 and H3K9ac levels in BMSCs isolated from treated Zmpste24−/− mice; type: in vivo, mouse; details: resveratrol 20 μg/ml in drinking water
Procedure: (§2) Zmpste24^−/− mice have been described previously (Pendas et al., 2002). Mouse experimentation was performed in accordance with the guidelines of the Committee on the Use of Live Animals in Teaching and Research (CULATR) at the University of Hong Kong. New-born Zmpste24^−/− mice and wild-type controls were fed with resveratrol (20 μg/ml) or N-acetyl Cysteine (1 mg/ml) in drinking water. The survival of resveratrol-treated, NAC-treated, or vehicle-treated Zmpste24^−/− mice was recorded and their body weight was monitored weekly. The trabecular bone organization and bone mineral density were determined by micro-CT. The survival rate was analyzed by Kaplan-Meier method and statistical comparison was performed by Log-rank (Mantel-Cox) Test.
as §1
Briefly, resveratrol was supplemented at a concentration of 20 μg/ml in drinking water. Four months after treatment, BMSCs were collected for examination and comparison between resveratrol-treated and vehicle-treated Zmpste24^−/− mice.

Zmpste24−/− mice [2] = assay: HSC population in bone marrow of treated Zmpste24−/− mice (FACS); type: in vivo, mouse; details: resveratrol 20 μg/ml in drinking water
Procedure: as §2, with “Zmpste24^-/-” for “Zmpste24^−/−”, “([…]” for “(Pendas”, “Test. To analyze hematopoietic stem cells, mononucleated cells were collected by flushing femurs and tibias with staining medium (HBSS supplemented with 2% FBS) and stained with biotin-coupled lineage markers, Biotin-Flt3, PE-Sca-1, APC-c-Kit, and then SAv-PerCP. FACS profile analyses were performed using a BD FACSCalibur.” for “Test.”

AMPK [3] = assay: AMPK activation at low doses of resveratrol; type: cell-based; details: low doses (2-10 μM)
Procedure: It was shown that low doses of resveratrol (≤25 μM) activates AMPK in a SIRT1-dependent manner, while high doses (≥50 μM) activate AMPK independent of SIRT1 (Baur et al., 2006; Price et al., 2012; Sun et al., 2007). In the present invention, low doses (2-10 μM) of resveratrol were used and activation of AMPK was not observed; therefore, it is postulated that the beneficial effects of resveratrol on BMSCs are primarily attributable to the activation of SIRT1.

AMPK [4] = details: cited from earlier work

## Oc1ccc(C=Cc2cc(O)cc(O)c2)cc1 [resveratrol]
H3K9ac; Lmna−/− cells
  effect on level of H3K9ac: completely abrogated
H3K9ac; SIRT1−/− cells
  effect on level of H3K9ac: completely abrogated
H3K9ac; wild-type cells
  level of H3K9ac: downregulated
p16ink4a
  elevated levels of p16ink4a: did not reduce
Gadd45α and catalase; Zmpste24−/− BMSCs with SIRT1 knocked down
  stimulating effect on expression of Gadd45α and catalase: abolished the stimulating effect
Gadd45α and catalase; Zmpste24−/− BMSCs, resveratrol 10 μM
  expression of Gadd45α and catalase: increased
Zmpste24−/− mice [1]
  level of acetyl H3K9 in BMSCs: decreased
  level of acetyl p53 in BMSCs: decreased
  level of catalase in BMSCs: enhanced
Zmpste24−/− mice [2]
  early decline in HSCs: rescued
AMPK [3]
  activation of AMPK: not observed
AMPK [4]; high doses
  doses activating AMPK independent of SIRT1: ≥ 50 µM
AMPK [4]; low doses
  doses activating AMPK in a SIRT1-dependent manner: ≤ 25 µM
